Read-outs that look alike come from different tables or passages of the source. No end group written: not given here.
How the values were obtained:
[1] = assay type: binding; conditions: excitation 488 nm, emission ≧680 nm
[2] = Multicolor, multisite labeling, pairs of peptides: Cy5 detection; assay type: binding; conditions: pair of G1^0 with P3, P4, P5 or P6; both probes present; 5, 10, 20 mM DTT
Description: (§1) Multicolor, multisite labeling was assessed in electrophoretic-mobility-shift assays. Pairs of tetracysteine-tagged peptides—one neutral tetracysteine-tagged peptide, and one negatively-charged tetracysteine-tagged peptide (the charge difference resulting in different electrophoretic mobilities on the gel, thus allowing the two tetracysteine-tagged peptides to be distinguished)—were analyzed. For each combination of probe and pair of tetracysteine-tagged peptides, three reactions were performed in parallel: one reaction at 5 mM DTT, one reaction at 10 mM DTT, and one reaction at 20 mM DTT. […] DTT (1 μl of 50 mM DTT for reactions at 5 mM DTT, 1 μl of 100 mM DTT for reactions at 10 mM DTT, and 1 μl of 200 mM DTT for reactions at 20 mM DTT) was added, and samples were incubated 30 min at 25° C.

[3] = Multicolor, multisite labeling, pairs of peptides: FlAsH detection; assay type: binding; conditions: pair of G1^0 with the named peptide; both probes present; 5, 10, 20 mM DTT
Description: as §1

[4] = Tag-conjugate interaction found by the inventors: Cy5 derivatives; assay type: binding
[5] = Tag-conjugate interaction found by the inventors: FlAsH-EDT2; assay type: binding
[6] = Tag-conjugate interaction found by the inventors: Cy3 derivatives; assay type: binding
[7] = Tag-conjugate binding found by the inventors: Cy3 and Cy5 bis-propionamido-phenylarsine derivatives
[8] = system: tetracysteine peptide; conditions: initially non-fluorescent; Griffin, et al. Science (1998); cited from earlier work
[9] = Multicolor, multisite labeling of doubly-tetracysteine-tagged proteins (SARPs), crude lysate; assay type: binding, Escherichia coli; conditions: for FlAsH-Cy5 FRET within the resulting complex (SARP detection): excitation 488 nm, emission ≧680 nm; for co-labeling by FlAsH and Cy5-(SO3)2-(PAEDT)2: ~1 μM doubly-tagged protein
Description: Multicolor, multisite labeling of doubly-tetracysteine-tagged proteins—yielding self-assembled relay probes, SARPs—was assessed in electrophoretic-mobility-shift assays. DTT (1 μl of 125 mM solution) was added to 23 μl crude lysate containing doubly-tetracysteine-tagged protein (˜1 μM; Example 14.2), and samples were incubated 30 min at 25° C. Cy5-(SO3)2-(PAEDT)2 (Example 9.2; 0.5 μl of 1 mM solution in DMF) was added, and samples were incubated 20 min at 25° C. FlAsH (Griffin, et al. (2000) Methods Enzmol. 327, 565-578; 0.5 μl of 0.1 mM solution in DMF) was then added, and samples were further incubated 5 min at 25° C.

## Ac-EWNCCPPPPCCN-AEAAAKEAAAKEAAAKEAAAKA-NCCGCCN—CONH2 [SARP-P4/G1-HL4X]
[1]
  FlAsH-Cy5 FRET within the resulting complex (SARP detection): participated in FlAsH-Cy5 FRET

## Ac-EWNCCPPPPCCN—CONH2 (Ac-EWNCCPPPPCCN-NH2; cysteine pairing not given here) [P4]
[2]
  labeling by Cy5-(SO3)2-(PAEDT)2 in a pair of peptides: labeled
[3]
  FlAsH labeling as % of the level of labeling of G1^0: < 10%

## CGPCCGPC [Ac—WNCGPCCGPCN—CONH2]
[4]
  binding of tag to Cy5 bis-sulfonato bis-propionamido-phenylarsine or Cy5 bis-propionamido-phenylarsine: bind
[5]
  interaction of tag with FlAsH-EDT2: do not interact substantially

## Ac-EWNCCPPPPPPCCN—CONH2 (Ac-EWNCCPPPPPPCCN-NH2; cysteine pairing not given here) [P6]
[2]
  labeling by Cy5-(SO3)2-(PAEDT)2 in a pair of peptides: labeled
[3]
  FlAsH labeling as % of the level of labeling of G1^0: < 10%

## CCGPCC: tetracysteine peptide tag of the general form CCXXCC (target sequence)
[6]
  interaction of tag with Cy3 derivatives of conjugates according to Formula (I): interact tightly
[4]
  interaction of tag with Cy5 derivatives of conjugates according to Formula (I): not interact, or interact less tightly

## Ac-EWNCCPPPCCN—CONH2 (Ac-EWNCCPPPCCN-NH2; cysteine pairing not given here) [P3]
[2]
  labeling by Cy5-(SO3)2-(PAEDT)2 in a pair of peptides: labeled
[3]
  FlAsH labeling as % of the level of labeling of G1^0: < 10%

## CCPPPPCC (target sequence) [tetracysteine peptide tag of the form CC(P)nCC]
[7]
  binding of tag to Cy3 and Cy5 (bis-sulfonato) bis-propionamido-phenylarsine derivatives: bind
[5]
  interaction of tag with FlAsH-EDT2: not interact substantially

## CCPPPPPCC (target sequence) [tetracysteine peptide tag of the form CC(P)nCC]
[7]
  binding of tag to Cy3 and Cy5 (bis-sulfonato) bis-propionamido-phenylarsine derivatives: bind
[5]
  interaction of tag with FlAsH-EDT2: not interact substantially

## CCPGPCC
[7]
  binding of tag to Cy3 and Cy5 (bis-sulfonato) bis-propionamido-phenylarsine derivatives: bind
[5]
  interaction of tag with FlAsH-EDT2: not interact substantially

## O=C(O)c1ccccc1-c1c2ccc(=O)c([As]3SCCS3)c-2oc2c([As]3SCCS3)c(O)ccc12 [FlAsH-EDT2, 4′,5′-bis (1,3,2-dithioarsolan-2-yl)fluorescein]
[8]
  fluorescence on addition of a tetracysteine peptide to displace the EDT: develops bright fluorescence

## α-CCPPPCC—PPPPPPPPP—CCGCCN [α-SARP-P3/G1-PP9]
[9]
  specificity of co-labeling and FRET-dependent detection (other proteins labeled): no other protein in the crude lysate was detectably labeled
  FlAsH-Cy5 FRET within the resulting complex (SARP detection): participated in FlAsH-Cy5 FRET
  co-labeling by FlAsH and Cy5-(SO3)2-(PAEDT)2: co-labeled

## CCPPPPPPCC (target sequence) [tetracysteine peptide tag of the form CC(P)nCC]
[7]
  binding of tag to Cy3 and Cy5 (bis-sulfonato) bis-propionamido-phenylarsine derivatives: bind
[5]
  interaction of tag with FlAsH-EDT2: not interact substantially

## CCPPPCC (target sequence) [tetracysteine peptide tag of the form CC(P)nCC]
[7]
  binding of tag to Cy3 and Cy5 (bis-sulfonato) bis-propionamido-phenylarsine derivatives: bind
[5]
  interaction of tag with FlAsH-EDT2: not interact substantially

## Ac-EWNCCPPPPPCCN—CONH2 (Ac-EWNCCPPPPPCCN-NH2; cysteine pairing not given here) [P5]
[2]
  labeling by Cy5-(SO3)2-(PAEDT)2 in a pair of peptides: labeled
[3]
  FlAsH labeling as % of the level of labeling of G1^0: < 10%

## α-CCPPPPCC—PPPPPPPPP—CCGCCN [α-SARP-P4/G1-PP9]
[9]
  specificity of co-labeling and FRET-dependent detection (other proteins labeled): no other protein in the crude lysate was detectably labeled
  FlAsH-Cy5 FRET within the resulting complex (SARP detection): participated in FlAsH-Cy5 FRET
  co-labeling by FlAsH and Cy5-(SO3)2-(PAEDT)2: co-labeled

## Ac-EWNCCPPPPCCN—PPPPPPPPP—NCCGCCN—CONH2 [SARP-P4/G1-PP9]
[1]
  FlAsH-Cy5 FRET within the resulting complex (SARP detection): participated in FlAsH-Cy5 FRET

## CGCGCGC (not fully specified (N-terminus, C-terminus); cysteine pairing not given here) [Ac—WNCGCGCGCN—CONH2, tag CGCGCGC; tested as the set A peptide that holds it]
[4]
  binding of tag to Cy5 bis-sulfonato bis-propionamido-phenylarsine or Cy5 bis-propionamido-phenylarsine: bind
[5]
  interaction of tag with FlAsH-EDT2: do not interact substantially

## Ac-EWNCCPPPPCCN—PPPPPPPPPPPP—NCCGCCN—CONH2 [SARP-P4/G1-PP12]
[1]
  FlAsH-Cy5 FRET within the resulting complex (SARP detection): participated in FlAsH-Cy5 FRET
